# Laboratory results as given in patent publication US8648096B2, “N-methylaminomethyl isoindole compounds and compositions comprising and methods of using the same” (Celgene Corporation, priority 2006, dated 2014).
smiles,measurement,value
"CN(Cc1cccc2c1C(=O)N(C1CCC(=O)NC1=O)C2=O)C(=O)OC(C)(C)C (stereo not shown) [Example 5.1, [2-(2,6-dioxo-piperidin-3-yl)-1,3-dioxo-2,3-dihydro-1H-isoindol-4-ylmethyl]-methyl-carbamic acid T-butyl ester]",melting point,138 to 140 °C
"Cc1cccc(NC(=O)N(C)Cc2cccc3c2CN(C2CCC(=O)NC2=O)C3=O)c1 (stereo not shown) [Example 5.29, 1-[2-(2,6-dioxo-piperidin-3-yl)-1-oxo-2,3-dihydro-1H-isoindol-4-ylmethyl]-1-methyl-3-M-tolyl-urea]",melting point,208 to 210 °C
"CCCNC(=O)N(C)Cc1cccc2c1CN(C1CCC(=O)NC1=O)C2=O (stereo not shown) [Example 5.30, 1-[2-(2,6-dioxo-piperidin-3-yl)-1-oxo-2,3-dihydro-1H-isoindol-4-ylmethyl]-1-methyl-3-propyl-urea]",melting point,220 to 222 °C
"CN(Cc1cccc2c1CN(C1CCC(=O)NC1=O)C2=O)C(=O)Nc1cccc(Cl)c1 (stereo not shown) [Example 5.32, 3-(3-chloro-phenyl)-1-[2-(2,6-dioxo-piperidin-3-yl)-1-oxo-2,3-dihydro-1H-isoindol-4-ylmethyl]-1-methyl-urea]",melting point,193 to 195 °C
"CN(Cc1cccc2c1CN(C1CCC(=O)NC1=O)C2=O)C(=O)Nc1cccc(C(F)(F)F)c1 (stereo not shown) [Example 5.34, 1-[2-(2,6-dioxo-piperidin-3-yl)-1-oxo-2,3-dihydro-1H-isoindol-4-ylmethyl]-1-methyl-3-(3-trifluoromethyl-phenyl)-urea]",melting point,198 to 200 °C
"CN(Cc1cccc2c1C(=O)N(C1CCC(=O)NC1=O)C2=O)C(=O)Nc1cccc(Cl)c1 (stereo not shown) [Example 5.35, 3-(3-chloro-phenyl)-1-[2-(2,6-dioxo-piperidin-3-yl)-1,3-dioxo-2,3-dihydro-1H-isoindol-4-ylmethyl]-1-methyl-urea]",melting point,193 to 195 °C
"CN(Cc1cccc2c1C(=O)N(C1CCC(=O)NC1=O)C2=O)C(=O)NC(C)(C)C (stereo not shown) [Example 5.36, 3-tert-butyl-1-[2-(2,6-dioxo-piperidin-3-yl)-1,3-dioxo-2,3-dihydro-1H-isoindol-4-ylmethyl]-1-methyl-urea]",melting point,188 to 190 °C
"CN(Cc1cccc2c1CN(C1CCC(=O)NC1=O)C2=O)C(=O)Nc1cc(Cl)cc(Cl)c1 (stereo not shown) [Example 5.37, 3-(3,5-dichloro-phenyl)-1-[2-(2,6-dioxo-piperidin-3-yl)-1-oxo-2,3-dihydro-1H-isoindol-4-ylmethyl]-1-methyl-urea]",melting point,285 to 287 °C
"Cc1ccc(NC(=O)N(C)Cc2cccc3c2C(=O)N(C2CCC(=O)NC2=O)C3=O)cc1C (stereo not shown) [Example 5.40, 3-(3,4-dimethyl-phenyl)-1-[2-(2,6-dioxo-piperidin-3-yl)-1,3-dioxo-2,3-dihydro-1H-isoindol-4-ylmethyl]-1-methyl-urea]",melting point,202 to 204 °C
"CN(Cc1cccc2c1CN(C1CCC(=O)NC1=O)C2=O)C(=O)Nc1cccc2ccccc12 (stereo not shown) [Example 5.41, 1-[2-(2,6-dioxo-piperidin-3-yl)-1-oxo-2,3-dihydro-1H-isoindol-4-ylmethyl]-1-methyl-3-naphthalen-1-yl-urea]",melting point,292 to 294 °C
